In patent US12419890B2, “Administration of sumo-activating enzyme inhibitor and checkpoint inhibitors” (Takeda Pharmaceutical Company Limited, priority 2019, dated 2025):

Experiments:
[1] = test system: B16-F10 syngeneic mouse melanoma-derived subcutaneous tumor; assay: B16-F10 Study 7: mouse B16-F10 syngeneic tumor model, individual tumor volume; format: in vivo; conditions: delay from day 7 to day 10-12; of the 8 implanted tumors; Compound I-263a 7.5 mg/kg IV BIWx3 till Day 17
Procedure: B16-F10 Study 7: B16-F10 is a mouse melanoma cell line. B16-F10 mouse syngeneic tumor model was generated by subcutaneous inoculation with 0.08×10^6 B16-F10 cells (cell suspension) in 11 weeks old female C57BL/6 mice (Taconic Biosciences, Rensselaer, NY) in the flank. When the mean tumor volume reached approximately 50 mm^3, the animals were randomized into one vehicle control and five treatment groups (n=8/group). Mice were then dosed with 20% HPbCD or Compound I-263a or anti-mouse PD-1 antibody over a 17-day period. Tumor growth and body weight were measured twice per week during the treatment and post-treatment periods, and mice were humanely euthanized once they had reached their humane endpoint.
Study 7: A 0.75 mg/mL stock solution of Compound I-263a was formulated weekly in 20% HPβCD and administered intravenously (IV) based on exact animal body weight on each day of treatment, using a dosing volume of 10 mL/kg body weight. Final doses received were 7.5 mg/kg. Dosing volume for Compound I-263a was 0.2 mL. […]
(§1) Tumors were measured twice weekly using vernier calipers. Tumor volumes were calculated using standard equation: V=W^2×L/2, where V=volume, W=width, and L=length for the tumor. […] Tumor size and body weight were measured twice a week for the duration of the study. […]

[2] = test system: CT26 syngeneic mouse colon fibroblast carcinoma-derived subcutaneous tumor; assay: CT26 Study 1: mouse CT26 syngeneic tumor model, individual tumor volume; format: in vivo; conditions: Compound I-263a 7.5 mg/kg IV Day 1, 4; anti-mPD-1 10 mg/kg IP Day 1, 4, 8, 11; 8 mice/group
Procedure: CT26 Study 1: CT26 is a mouse colon fibroblast carcinoma cell line. CT26 mouse syngeneic tumor model was generated by subcutaneous inoculation with 0.2×10^6 CT-26 cells (cell suspension) in 12 weeks old female BALB/c mice (Jackson Laboratory, 600 Main St, Bar Harbor, ME) in the flank. When the mean tumor volume reached approximately 60 mm^3, the animals were randomized into one vehicle control and three treatment groups (n=8/group). Mice were then dosed with 20% HPbCD or Compound I-263a or anti-mouse PD-1 antibody over a 14-day period. Tumor growth and body weight were measured twice per week during the treatment and post-treatment periods, and mice were humanely euthanized once they had reached their humane endpoint.
Study 1: A 0.825 mg/mL stock solution of Compound I-263a was formulated weekly in 20% HPβCD and administered intravenously (IV) based on exact animal body weight on each day of treatment, using a dosing volume of 10 mL/kg body weight. Final doses received were 7.5 mg/kg. Dosing volume for Compound I-263a was 0.2 mL. […]
as §1

For Cc1sc(C(=O)c2cncnc2N[C@@H]2C[C@H](COS(N)(=O)=O)[C@@H](O)C2)cc1[C@@H]1NCCc2ccc(Cl)cc21 [Compound I-263a, [(1R,2S,4R)-4-{[5-({4-[(1R)-7-chloro-1,2,3,4-tetrahydroisoquinolin-1-yl]-5-methyl-2-thienyl}carbonyl)pyrimidin-4-yl]amino}-2-hydroxycyclopentyl]methyl sulfamate], the “tumors with tumor growth delay” value [1] was 2 and the “tumor growth inhibition relative to vehicle-treated tumors” value [2] was “did not show any tumor growth inhibition”.
